A value given as a limit tells only on which side of the number the result lay.

The target of this test is T1, sodium-proton exchanger of subtype 3 (NHE3) (Homo sapiens, UniProt P48764).
T1 construct: expressed in transfected cells
T1 sequence (P48764 26-834): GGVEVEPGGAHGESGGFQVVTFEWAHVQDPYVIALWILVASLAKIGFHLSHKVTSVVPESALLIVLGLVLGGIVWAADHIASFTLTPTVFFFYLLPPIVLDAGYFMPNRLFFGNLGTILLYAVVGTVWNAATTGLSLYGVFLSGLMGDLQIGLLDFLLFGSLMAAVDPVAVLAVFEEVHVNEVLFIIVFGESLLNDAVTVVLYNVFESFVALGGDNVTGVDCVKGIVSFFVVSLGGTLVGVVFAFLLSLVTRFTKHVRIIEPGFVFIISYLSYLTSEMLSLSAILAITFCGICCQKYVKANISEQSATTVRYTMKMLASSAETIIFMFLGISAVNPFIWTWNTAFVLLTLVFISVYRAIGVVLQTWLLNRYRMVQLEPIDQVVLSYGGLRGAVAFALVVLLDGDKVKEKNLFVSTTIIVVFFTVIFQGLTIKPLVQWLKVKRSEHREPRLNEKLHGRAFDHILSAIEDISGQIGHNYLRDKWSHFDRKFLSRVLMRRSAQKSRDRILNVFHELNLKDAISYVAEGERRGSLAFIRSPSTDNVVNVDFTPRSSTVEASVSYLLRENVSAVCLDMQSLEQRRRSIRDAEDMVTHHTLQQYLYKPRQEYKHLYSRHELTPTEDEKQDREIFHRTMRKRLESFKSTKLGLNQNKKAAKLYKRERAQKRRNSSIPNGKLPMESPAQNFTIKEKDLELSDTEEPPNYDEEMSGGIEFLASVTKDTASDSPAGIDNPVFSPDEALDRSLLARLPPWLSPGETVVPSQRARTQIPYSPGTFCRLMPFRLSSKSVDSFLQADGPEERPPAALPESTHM
The test is described as follows: Recovery of intracellular pH (pHi) after acidification in LAP1 cells stably expressing NHE3 (BCECF fluorescence, FLIPR). In kind it is cell-based. To be noted: LAP1 cells stably expressing NHE3; pH recovery after acidification; range 1 is % inhibition at 10 μM; read-out: Activity range (inhibitory effect on NHE3).

With `CC(C)c1nc(C(C)(C)C)cn1-c1ccc(O[C@H]2c3cc(Cl)cc(F)c3C[C@@H]2N2CC[C@@H](O)C2)cc1` [Example 724, (R)-1-{trans-(1S,2S)-1-[4-(4-tert-Butyl-2-isopropyl-imidazol-1-yl)-phenoxy]-6-chloro-4-fluoro-indan-2-yl}-pyrrolidin-3-ol], the inhibition at 10 µM lay within 20 to 50%. For `CS(=O)(=O)c1ccccc1O[C@H]1c2cc(Cl)cc(Cl)c2C[C@@H]1N1CCC[C@@H](N)C1` [Example 25, (R)-1-[(1S,2S)-4,6-dichloro-1-(2-methanesulfonylphenoxy)indan-2-yl]piperidin-3-ylamine], the IC50 is under 1000 nM. Still for that read-out and setting: then `CCCc1ccc(NC(C)=O)cc1O[C@H]1c2ccccc2CC[C@@H]1N1CCC[C@H](N)C1` (racemic) [Example 683, N-{3-[rac-trans-(1,2)-2-((S)-3-aminopiperidin-1-yl)-1,2,3,4-tetrahydronaphthalen-1-yloxy]-4-propylphenyl}acetamide], with 1000 to 10000 nM.

As to `N[C@H]1CCCN([C@H]2CCc3ccccc3[C@@H]2Oc2cnc3ccccc3c2)C1` (racemic) [Example 192, (S)-1-[rac-trans-(1,2)-1-(quinolin-3-yloxy)-1,2,3,4-tetrahydronaphthalen-2-yl]piperidin-3-ylamine], the inhibition at 10 µM lay within 20 to 50%.

Turning to `N[C@H]1CCCN([C@H]2CCc3ccccc3[C@@H]2Oc2ccc(N3CCNCC3)cc2)C1` (racemic) [Example 184, (S)-1-[rac-trans-(1,2)-1-(4-piperazin-1-ylphenoxy)-1,2,3,4-tetrahydronaphthalen-2-yl]piperidin-3-ylamine], the inhibition at 10 µM lay in the range of 20 to 50%. Regarding `Cc1nnc(C)n1-c1ccc(O[C@H]2c3cc(Cl)ccc3C[C@@H]2N2CC[C@@H](O)C2)c(F)c1` [Example 143, (R)-1-{trans-(1S,2S)-6-chloro-1-[4-(3,5-dimethyl-[1,2,4]triazol-4-yl)-2-fluorophenoxy]indan-2-yl}pyrrolidin-3-ol], the IC50 was under 1000 nM. Still for that read-out and setting: then `CCc1nc(C)cn1-c1ccc(O[C@H]2c3cc(Cl)cc(Cl)c3C[C@@H]2N2CC[C@@H](O)C2)cc1` [Example 712, (R)-1-{trans-(1S,2S)-4,6-Dichloro-1-[4-(2-ethyl-4-methyl-imidazol-1-yl)-phenoxy]-indan-2-yl}-pyrrolidin-3-ol], with 1000 to 10000 nM. Same read-out and setting: then `N[C@@H]1CCCN([C@H]2CCc3ccccc3[C@@H]2Oc2cccc(-n3cnnn3)c2)C1` (racemic) [Example 60, (R)-1-[rac-trans-(1,2)-1-(3-tetrazol-1-ylphenoxy)-1,2,3,4-tetrahydronaphthalen-2-yl]piperidin-3-ylamine], with 1000 to 10000 nM; and `CS(=O)(=O)c1ccc(O[C@H]2c3ccccc3C[C@@H]2N2CCNCC2)cc1` (racemic) [Example 272, 1-[rac-trans-(1,2)-1-(4-methanesulfonylphenoxy)indan-2-yl]piperazine], with 1000 to 10000 nM; and `CN(C)Cc1cccc(O[C@@H]2c3ccccc3C[C@H]2N2CCC[C@H](N)C2)c1` (racemic) [Example 167, (S)-1-[rac-trans-(1,2)-1-(3-dimethylaminomethylphenoxy)indan-2-yl]piperidin-3-ylamine], with 1000 to 10000 nM.

Regarding `N[C@@H]1CCCN([C@@H]2Cc3ccccc3[C@H]2Oc2ccncc2)C1` (racemic) [Example 86, (R)-1-[rac-trans-(1,2)-1-(pyridin-4-yloxy)indan-2-yl]piperidin-3-ylamine], the IC50 lay in the range of 1000 to 10000 nM.

For `c1ccc2c(c1)CC[C@H](N1CCOCC1)[C@H]2Oc1cnc2ccccc2c1` (racemic) [Example 400, 3-(rac-trans-(1,2)-2-morpholin-4-yl-1,2,3,4-tetrahydronaphthalen-1-yloxy)quinoline], the inhibition at 10 µM is 20 to 50%. For `N[C@H]1CCCN([C@@H]2Cc3ccccc3[C@H]2Oc2ccc(-n3cncn3)cc2)C1` (racemic) [Example 172, (S)-1-[rac-trans-(1,2)-1-(4-[1,2,4]triazol-1-ylphenoxy)indan-2-yl]piperidin-3-ylamine], the IC50 was in the range of 1000 to 10000 nM. Still for that read-out and setting: then `CN1CC(=O)N(c2ccc(Cl)c(O[C@H]3c4cc(Cl)cc(Cl)c4C[C@@H]3N3CC[C@@H](O)C3)c2)C1=O` [Example 430, 3-{4-chloro-3-[(1S,2S)-4,6-dichloro-2-((R)-3-hydroxypyrrolidin-1-yl)indan-1-yloxy]phenyl}-1-methylimidazolidine-2,4-dione], with under 1000 nM; and `O=C1CSC(=O)N1c1ccc(O[C@H]2c3cc(Cl)cc(Cl)c3C[C@@H]2N2CC[C@@H](O)C2)cc1` [Example 428, 3-{4-[(1S,2S)-4,6-dichloro-2-((R)-3-hydroxypyrrolidin-1-yl)indan-1-yloxy]phenyl}thiazolidine-2,4-dione], with under 1000 nM. Still for that read-out and setting: then `CN(C)[C@@H]1CCCN([C@H]2Cc3c(Cl)cc(Cl)cc3[C@@H]2Oc2ccc(S(C)(=O)=O)cc2)C1` [Example 224, {(R)-1-[trans-(1S,2S)-4,6-dichloro-1-(4-methanesulfonylphenoxy)indan-2-yl]piperidin-3-yl}-dimethylamine], with under 1000 nM; and `CN1CCN([C@H]2Cc3c(Cl)cc(Cl)cc3[C@@H]2Oc2ccc(S(C)(=O)=O)cc2)CC1` [Example 306, 1-[trans-(1S,2S)-4,6-dichloro-1-(4-methanesulfonylphenoxy)indan-2-yl]-4-methylpiperazine], with 1000 to 10000 nM. Same read-out and setting: then `CS(=O)(=O)c1ccc(O[C@H]2c3cc(Cl)cc(F)c3C[C@@H]2N2CCCC2)cc1` (racemic) [Example 293, 1-[rac-trans-(1,2)-6-chloro-4-fluoro-1-(4-methanesulfonylphenoxy)indan-2-yl]pyrrolidine], with 1000 to 10000 nM; and `O=C1OCCN1c1ccc(Cl)c(O[C@H]2c3cc(Cl)cc(F)c3C[C@@H]2N2CC[C@@H](O)C2)c1` [Example 439, 3-{4-chloro-3-[(1S,2S)-6-chloro-4-fluoro-2-((R)-3-hydroxypyrrolidin-1-yl)indan-1-yloxy]phenyl}oxazolidin-2-one], with under 1000 nM. In the case of `CS(=O)(=O)c1ccc(O[C@H]2c3cc(Cl)ccc3C[C@@H]2N2CCNCC2)cc1` (racemic) [Example 289, 1-[rac-trans-(1,2)-6-chloro-1-(4-methanesulfonylphenoxy)indan-2-yl]piperazine], the IC50 is under 1000 nM. Turning to `Cc1cc(C)c2cccnc2c1O[C@H]1c2ccccc2CC[C@@H]1N1CCC[C@@H](N)C1` (racemic) [Example 78, (R)-1-[rac-trans-(1,2)-1-(5,7-dimethylquinolin-8-yloxy)-1,2,3,4-tetrahydronaphthalen-2-yl]piperidin-3-ylamine], the inhibition at 10 µM is 20 to 50%. Consider `N[C@H]1CCCN([C@@H]2Cc3ccccc3[C@H]2Oc2cccc(N3CCNCC3)c2)C1` (racemic) [Example 169, (S)-1-[rac-trans-(1,2)-1-(3-piperazin-1-ylphenoxy)indan-2-yl]piperidin-3-ylamine], for which the IC50 is under 1000 nM. Still for that read-out and setting: then `NC(=O)c1ccccc1O[C@H]1c2ccccc2CC[C@@H]1N1CCC[C@H](N)C1` (racemic) [Example 373, 2-[rac-trans-(1,2)-2-((S)-3-aminopiperidin-1-yl)-1,2,3,4-tetrahydronaphthalen-1-yloxy]benzamide], with under 1000 nM. On the same count and under the same terms, then `CCOC(=O)c1ncoc1-c1ccc(O[C@H]2c3ccccc3CC[C@@H]2N2CCC[C@H](N)C2)cc1` (racemic) [Example 584, 5-{4-[rac-trans-(1,2)-2-((S)-3-aminopiperidin-1-yl)-1,2,3,4-tetrahydronaphthalen-1-yloxy]phenyl}oxazole-4-carboxylic acid ethyl ester], with 1000 to 10000 nM. `CC(=O)Nc1cccc(O[C@H]2c3c(Cl)cc(Cl)cc3C[C@@H]2N(C)C)c1` (racemic) [Example 654, N-[3-(rac-trans-(1,2)-5,7-dichloro-2-dimethylaminoindan-1-yloxy)phenyl]acetamide]: the inhibition at 10 µM was 20 to 50%. As for `N[C@@H]1CCCN([C@H]2CCc3ccccc3[C@@H]2Oc2ccc(F)cc2)C1` (racemic) [Example 70, (R)-1-[rac-trans-(1,2)-1-(4-fluorophenoxy)-1,2,3,4-tetrahydronaphthalen-2-yl]piperidin-3-ylamine], the inhibition at 10 µM fell in the range of 20 to 50%.

In the case of `N[C@@H]1CCCN([C@@H]2Cc3ccccc3[C@H]2Oc2cccc(CN3CCCCC3)c2)C1` (racemic) [Example 58, (R)-1-[rac-trans-(1,2)-1-(3-piperidin-1-ylmethylphenoxy)indan-2-yl]piperidin-3-ylamine], the IC50 is 1000 to 10000 nM. On the same count and under the same terms, then `CC(=O)Nc1cccc(O[C@H]2c3cccc(C)c3C[C@@H]2N2CCCC2)c1` (racemic) [Example 653, N-[3-(rac-trans-(1,2)-4-methyl-2-pyrrolidin-1-ylindan-1-yloxy)phenyl]acetamide], with 1000 to 10000 nM. On the same count and under the same terms, then `CCn1cnn(-c2ccc(O[C@H]3c4cc(Cl)cc(Cl)c4C[C@@H]3N3CC[C@@H](O)C3)cc2)c1=O` [Example 736, 2-{4-[trans-(1S,2S)-4,6-Dichloro-2-((R)-3-hydroxy-pyrrolidin-1-yl)-indan-1-yloxy]-phenyl}-4-ethyl-2,4-dihydro-[1,2,4]triazol-3-one], with 1000 to 10000 nM.

(Values after patent publication US8822449B2, “Substituted aminoindanes and analogs thereof, and the pharmaceutical use thereof” (Sanofi, priority 2008, dated 2014).)
